From patent US7863446B2, “Heterocycles” (Orchid Research Laboratories Limited, priority 2006, dated 2011)

Experiments:
TNF-α [1] = experiment: In vitro measurement of TNF-α in human PBMC (LPS stimulated); type: cell-based
Summary of the method: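 Healthy-volunteer PBMC (0.5 million/well) in RPMI were pre-incubated with compound 15 min at 37 °C. They were then stimulated with E. coli B4 LPS 1 μg/ml for 18 h at 37 °C, 5% CO2. TNF-α in culture medium was measured by ELISA.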

HCT-116 = experiment: Anti-cancer screen (MTT), HCT-116; type: cell-based; conditions: Homo sapiens, HCT-116, 48 hours
Description: (§1) Experimental drugs are screened for anti-cancer activity in three cell lines for their GI50, TG1 and LC50 values (using 5 concentrations for each compound). The cell lines are maintained in DMEM containing 10% fetal bovine serum. 96 well microtiter plates are inoculated with cells in […] for 24 hours at 37° C., 5% CO2, 95% air and 100% relative humidity. 5000 HCT116 cells/well, 5000 NCIH460 cells/well, 10000 U251 cells/well and 5000 MDAMB231 cells/well are plated. A separate plate with these cell lines is also inoculated to determine cell viability before the addition of the compounds (T0).
(§2) Addition of Experimental Drugs
(§3) Following 24-hour incubation, experimental drugs are added to the 96 well plates. Each plate contains one of the above cell lines and the following in triplicate: 5 different concentrations (0.01, 0.1, 1, 10 and 100 μM) of 4 different compounds, appropriate dilutions of a cytotoxic standard and control (untreated) wells. Compounds are dissolved in dimethylsulfoxide (DMSO) to make 20 mM stock solutions, on the day of drug addition and frozen at −20° C. Serial dilutions of these 20 mM stock solutions are made in complete growth medium such that 100 μL of these drug solutions in medium, of final concentrations equaling 0.01, 0.1, 1, 10 and 100 μM can be added to the cells in triplicate. Standard drugs whose anti-cancer activity has been well documented and which are regularly used are doxorubicin and SAHA.
(§4) Cells are incubated with compounds for 48 hours followed by the addition of 10 μL 3-(4,5-Dimethyl-2-thiazolyl)-2,5-diphenyl-2H-tetrazolium (MTT) solution per well and a subsequent incubation at 37° C., 5% CO2, 95% air and 100% relative humidity, protected from light. After 4 hours, well contents are aspirated carefully followed by addition of 150 μL DMSO per well. Plates are agitated to ensure solution of the formazan crystals in DMSO and absorbance read at 570 nm.
(§5) Calculation of GI50, TGI and LC50
(§6) Percent growth is calculated for each compound's concentration relative to the control and zero measurement wells (T0; viability right before compound addition).
(§7) If a test well's O.D. value is greater than the T0 measurement for that cell line % Growth=(test−zero)/(control−zero)×100
(§8) If a test well's O.D. value is lower than the T0 measurement for that cell line, then % Growth=(test−zero)/zero×100 Plotting % growth versus experimental drug concentration, GI50 is the concentration required to decrease % growth by 50%; TGI is the concentration required to decrease % growth by 100% and LC50 is the concentration required to decrease % growth by 150%.

Male wistar rats = experiment: Carrageenan induced paw edema test in rat; type: in vivo; conditions: oral, 3 hours after carrageenan
Description: Carrageenan Induced Paw Edema Test in Rat
The carrageenan paw edema test was performed as described by Winter et al (Proc. Soc. Exp. Biol. Med, 111, 544, 1962). Male wistar rats were selected with body weights equivalent within each group. The rats were fasted for 18 hours with free access to water. The rats were dosed orally with the test compound suspended in the vehicle containing 0.25% carboxymethylcellulose and 0.5% Tween 80. The control rats were administered with vehicle alone. After an hour, the rats were injected with 0.1 ml of 1% Carrageenan solution in 0.9% saline into the sub-plantar surface of the right hind paw. Paw volume was measured using digital plethysmograph before and after 3 hours of carrageenan injection. The average of foot swelling in drug treated animals was compared with that of the control animals. Anti-inflammatory activity was expressed as the percentage inhibition of edema compared with control group [Arzneim-Forsch/Drug Res., 43 (I), 1, 44-50, 1993; Representative results of edema inhibition are shown in the Table VI.

TNF-α [2] = experiment: LPS induced sepsis for measurement of TNF-α inhibition in mice; type: in vivo; conditions: 50 mg/kg, oral, mice, serum 90 minutes after LPS
Description: LPS Induced Sepsis for Measurement of TNF-α Inhibition in Mice
The LPS induced sepsis model in mice was performed as described by Les sekut et al (J Lab Clin Med 1994; 124:813-20). Female Swiss albino mice were selected and the body weights were equivalent within each group. The mice were fasted for 20 hours with free access to water. The mice were dosed orally with the test compound suspended in vehicle containing 0.5% Tween 80 in 0.25% Carboxy-methylcellulose sodium salt. The control mice were administered the vehicle alone. After 30 minutes of oral dosing, mice were injected with 500 μg of Lipopolysaccharide (Escherichia coli, LPS: B4 from Siga) in phosphate buffer saline solution into the intraperitoneal cavity of the mice. After 90 minutes of LPS administration mice were bled via retro-orbital sinus puncture. Blood samples were stored overnight at 4° C. Serum samples were collected by centrifuging the samples at 4000 rpm for 15 minutes at 4° C. Immediately the serum samples were analysed for TNF-α levels using commercially available mouse TNF-α ELISA kit (Amersham Biosciences) and assay was performed by the manufacturer instruction.
ED50 Measurement of TNF alpha Inhibition in Mice Sepsis Model

NCI-H460 = experiment: Anti-cancer screen (MTT), NCI-H460; type: cell-based; conditions: Homo sapiens, NCI-H460, 48 hours
Description: as §1, §2, §3, §4, §5, §6, §7, §8

melting point: 226 to 230 °C | GI50 (HCT-116): 2 µM | GI50 (NCI-H460): 1.65 µM
SMILES: CNS(=O)(=O)c1ccc(-c2c(Cl)nc(C(F)(F)F)nc2-c2ccc(S(C)(=O)=O)cc2)cc1 [Example 4, 4-{4-Chloro-6-[4-(methylsulfonyl)phenyl]-2-(trifluoromethyl)pyrimidin-5-yl}-N-methylbenzenesulfonamide]
inhibition at 1 µM (TNF-α [1]; 1 μM, NA = No activity, read-out: TNF-α Inhibition (%) at Conc. (1 μM)): 30% | inhibition at 10 µM (TNF-α [1]; 10 μM, read-out: TNF-α Inhibition (%) at Conc. (10 μM)): 107% | Inhibition of edema (%) at 5 mg/kg (Male wistar rats): 17.12% | TNF-α Inhibition (%) at 50 mg/kg (TNF-α [2]): 38.37%
